According to patent publication US20020095001A1, “Methods and compositions for topical treatment of damaged tissue using reactive oxygen metabolite production or release inhibitors” (priority 1999, published 2002):

Experiments:
NADPH oxidase = target: T1, NADPH oxidase (Homo sapiens, UniProt P04839); conditions: membrane bound oxidase of phagocytes, substrate preference; generally accepted; cited from earlier work
T1 construct: host or cells: phagocytes / neutrophils (background description)

[1] = system: pharyngotosillitis, a herpetic infection of the pharyngeal region; test: Example 5: pharyngotonsillitis treated with a mouthwash; type: in vivo, human; conditions: mouthwash 0.05% by weight, five applications per day for seven days
Method: A subject suffering from pharyngotosillitis, a herpetic infection of the pharyngeal region is treated with a mouthwash containing the ROM inhibitory compound NADPH oxidase inhibitor […] in a concentration of 0.05% by weight of formulation. The treatment consists of five mouthwash applications per day for a period of seven days. The administration of […] was effective in treating the pharyngotosillitis of the subject.

[2] = system: varicella-zoster virus (chicken pox) infection; conditions: child; paste 0.02% by weight five times per day and soap 0.1% by weight during bathing
Method: A child presenting the symptoms of chicken pox is treated with the compounds of the present invention. In this example, two products are used to treat the subject. […] The paste is applied five times per day until the vesicles have completely healed.

herpes labialis [3] = conditions: cream 0.08% by weight five times a day together with ZOVIRAX; compared to ZOVIRAX alone
Method: The ability of the ROM production and release inhibition compounds of the present invention to increase the effectiveness of 9-(2-Hydroxyethoxymethyl)guanine, ZOVIRAX, (GlaxoWellcome) is evaluated in two groups of 10 subjects each. No subjects are suffering from active lesions at the initiation of the study. Group I subjects receive ZOVIRAX according to the dosage given by the manufacturer. […] Application of the cream continues during vesicle formation and until the vesicles have completely healed. Subjects in both groups are instructed to topically apply the product five times a day at the lesion site.
Subjects participating in the study are instructed to monitor the size and duration of the lesions during the herpetic episode.

herpes labialis [4] = conditions: cream with 0.08% by weight, topical four to five times a day; compared to control cream group
From the text: Treatment of the subjects consists of the topical application of the medication four to five times a day at the lesion site.

eczema = conditions: soap approx. 0.1% by weight once daily and lotion approx. 0.0055% by weight up to five times a day
Method: A subject presenting eczema is treated with a lotion and soap containing the ROM production and release inhibitory compound histamine dihydrochloride. The soap contains histamine in a concentration of approximately 0.1% by weight while the lotion contains histamine in a concentration of approximately 0.0055% by weight. The subject bathes with the soap once daily. The affected area is lathered well with the soap, rinsed, and the procedure is repeated. Following the bath, the lotion is applied up to five times throughout the day to the affected area.

[5] = system: keratoconjunctivitis or a corneal herpes infection; conditions: ophthalmic solution 0.09% by weight with ZOVIRAX every three hours, plus solution without ZOVIRAX hourly
Method: A subject presenting keratoconjunctivitis or a corneal herpes infection is treated with the compositions of the present invention using an ophthalmic solution of histamine dihydrochloride at 0.09% by weight of formulation. Commercially available ophthalmic solutions are well known in the art. Additionally, the ophthalmic solution contains ZOVIRAX in an effective concentration. Application of the solution to the eye occurs every three hours. A solution containing only the ROM production and release inhibiting compound is given hourly to ease the discomfort of the subject.

[6] = system: chemical peel treated skin; conditions: solution 0.008% by weight, soaking five times daily after chemical peel
From the text: The solution is applied by soaking the treated five times daily to the treated area.

chemical burn injuries = conditions: water-based gel 0.007% by weight; every 10 minutes first hour, every 30 minutes next three hours, then as needed
Method: The compositions of the present invention are administered topically to a subject presenting chemical burn injuries. A water-based gel preparation containing of 0.007% by weight of the formulation of histamine dihydrochloride was administered to the subject's burn injuries. The treatment consisted of topical application of the gel to the burn site every 10 minutes for the first hour, then every 30 minutes for the next three hours. Topical applications thereafter are applied as needed by the subject in response to pain.

incision of the skin = conditions: formulation 0.0045% by weight with vitamin A 2000 IU, vitamin E 5000 IU and a topical antibiotic, twice a day
Method: The compositions of the present invention are administered topically to a subject presenting an incision of the skin. A formulation containing histamine dihydrochloride in a concentration of 0.0045% by weight of the formulation, vitamin A at 2000 IU, vitamin E at 5000 IU, and a topical antibiotic is applied to the wound following proper wound cleansing. Subsequent administration of the formulation occurs twice a day and with each change of wound dressing.

psoriasis of the scalp = system: psoriasis of the scalp
Method: A subject suffering from psoriasis of the scalp is treated with a shampoo containing approximately 0.008% by weight of histamine dihydrochloride. The subject undergoes UVB treatment in accordance with a protocol well known to those of ordinary skill in the art. In addition, the subject washes their hair once per day with the shampoo containing the ROM production and release inhibitory compound histamine.

[7] = system: herpes zoster or shingles lesions; conditions: ointment approx. 0.004% by weight four times a day plus subcutaneous histamine 10 μg/kg once per week
Method: A subject presenting herpes zoster or shingles lesions is treated with the compounds of the present invention in the form of an ointment. […] The ointment is administered topically to shingles lesions four times a day until the lesions completely heal. A subcutaneous injection of histamine at a concentration of 10 μg/kg of the subject is also administered. The injection is given once per week.

periodontal disease = conditions: mouthwash and toothpaste, each 0.008% by weight, three times daily
Method: A subject presenting periodontal disease is treated with a mouthwash and toothpaste, each containing 0.008% by weight of histamine dihydrochloride. The subject brushes their teeth three times daily with the toothpaste for ten minutes. Following this cleansing, the subject washes their mouth with the mouthwash, rinses with water, and repeats. The treatment continues until the health of the periodontal tissue improves.

[8] = system: laser facial resurfacing treated skin; conditions: bandage with sterile solution 0.008% by weight five times daily, plus sunscreen 0.008% by weight
From the text: The bandage containing the sterile solution of histamine dihydrochloride is applied five times daily to the treated area. A sunscreen containing 0.008% by weight of histamine dihydrochloride is also applied before the subject is to be exposed to sunlight.

[9] = system: photodermatitis (second degree sunburn); conditions: aloe vera based gel such as SOOTH-A-CAINE containing 0.006% by weight
From the text: The ROM production and release inhibitory compound serotonin is used in a gel to treat a subject presenting photodermatitis (second degree sunburn) and attendant blister formation. The subject has blister formation as well as deep reddening of the epidermis on the back.

thermal burn injuries = test: Example 15: thermal burn injuries treated with a water-based gel; type: in vivo, human; conditions: water-based gel 0.007% by weight; every 10 minutes first hour, every 30 minutes next three hours, then as needed
Method: The compositions of the present invention are administered topically to a subject presenting thermal burn injuries. A water-based gel preparation containing of 0.007% by weight of the formulation of serotonin was administered to the subject's burn injuries. The treatment consisted of topical application of the gel to the burn site every 10 minutes for the first hour, then every 30 minutes for the next three hours. Topical applications thereafter are applied as needed by the subject in response to pain.

herpes labialis [10] = conditions: 0.07% by weight lipstick, three times a day for five days
From the text: The treatment consists of topical application three times a day for a period of five days.

herpes genitalis = conditions: 0.07% by weight foam (vaginal) and cream (external), three times a day for five days
Method: Using an applicator, the foam is injected into the vaginal space to treat herpetic lesions therein. The cream is applied topically to external lesions. The cream and foam are applied three times a day for a period of five days.

NC(=O)C1=CN([C@@H]2O[C@H](COP(=O)(O)OP(=O)(O)OC[C@H]3O[C@@H](n4cnc5c(N)ncnc54)[C@H](O)[C@@H]3O)[C@@H](O)[C@H]2O)C=CC1 [NADH]
Km (NADPH oxidase): 450 µM

NC(=O)C1=CN([C@@H]2O[C@H](COP(=O)(O)OP(=O)(O)OC[C@H]3O[C@@H](n4cnc5c(N)ncnc54)[C@H](OP(=O)(O)O)[C@@H]3O)[C@@H](O)[C@H]2O)C=CC1 [NADPH]
Km (NADPH oxidase): 45 µM

c1ccc2c(c1)[I+]c1ccccc1-2 [diphenlyeneiodonium]
effectiveness in treating the pharyngotosillitis [1]: effective

Cl.Cl.NCCc1c[nH]cn1 [histamine dihydrochloride]
healing of vesicles [2]: causes the vesicles to heal rapidly | level of discomfort experienced by the subject [2]: decreases the level of discomfort | size of the herpetic lesions forming during the outbreak period (herpes labialis [3]): decrease in the size of the herpetic lesions | healing time of herpetic lesions (herpes labialis [4]): decrease in healing time | general condition of the skin in the affected area (eczema): increase in the general condition of the skin | symptoms of eczema (eczema): decrease in the symptoms | damage caused by the viral outbreak [5]: reduces | discomfort of the patient [5]: reduces the discomfort of the patient | time period of viral activity [5]: reduces the time period of viral activity | rate of healing [6]: rate of healing is increased | discomfort of the subject (chemical burn injuries): reduces the discomfort | healing of the burn injuries (chemical burn injuries): promotes healing | healing of the incision (incision of the skin): promotes healing of the incision | scar formation (incision of the skin): reduces scar formation | rate of reduction in symptoms (psoriasis of the scalp; shampoo approx. 0.008% by weight once per day with UVB, compared to UVB treatment alone): reduction in symptoms at a greater rate | irritation of the affected area (psoriasis of the scalp; shampoo approx. 0.008% by weight once per day, with UVB treatment): reduces the irritation of the affected area | time required for the healing of the herpetic lesions [7]: reduces the time required for the healing | rate of healing (periodontal disease): rate of healing is increased | rate of healing [8]: rate of healing is increased

NCCc1c[nH]cn1 [histamine]
blistering and amount of skin sloughed off as a result of the irradiation [9]: decrease in blistering and the amount of skin sloughed off | discomfort in the subject [9]: reduction of discomfort

NCCc1c[nH]c2ccc(O)cc12 [serotonin]
discomfort of the subject (thermal burn injuries): reduces the discomfort | healing of the burn injuries (thermal burn injuries): promotes healing

histamine diphosphate
healing time of the ruptured herpetic vesicles (herpes labialis [10]): reduced the healing time | healing time of the ruptured herpetic vesicles (herpes genitalis): reduced the healing time
